Assay results: the CheMixHub ionic liquid set
“And” between values parts separate entries of the source, which are not always exact repeats. Identical values can stand only once.

Assay: xn = mol fraction of the nth substance listed

CCCCCCCCCCCC[N+](C)(C)Cc1ccccc1.[Cl-] + CC(C)C[C@H](N)C(=O)O + O
electrical conductivity [S/m], 101 kPa
Details	293.15 K	298.15 K	303.15 K	308.15 K	313.15 K
x2 = 0.001798, x1 = 0.0001441	0.0541	0.0606	0.0671	0.074	0.0811
x2 = 0.001798, x1 = 0.0001691	0.061	0.068	0.0755	0.0833	0.0918
x2 = 0.001798, x1 = 0.0001949	0.0661	0.0738	0.0821	0.0911	0.101
x2 = 0.001798, x1 = 0.0002208	0.0704	0.0788	0.0879	0.0977	0.108
x2 = 0.001798, x1 = 0.0002443	0.0741	0.0832	0.0928	0.103	0.116
x2 = 0.001798, x1 = 0.0002664	0.0776	0.0872	0.0975	0.109	0.122
x2 = 0.001798, x1 = 0.0002864	0.0807	0.0908	0.102	0.114	0.127
x2 = 0.001798, x1 = 0.0003052	0.0838	0.0941	0.106	0.118	0.132
x2 = 0.001798, x1 = 0.0003239	0.0872	0.0976	0.11	0.123	0.137
x2 = 0.001799, x1 = 5.649e-05	0.0231	0.0258	0.0287	0.0317	0.0346
x2 = 0.001799, x1 = 7.89e-05	0.0314	0.035	0.0389	0.0428	0.0469
x2 = 0.001799, x1 = 9.986e-05	0.0387	0.0435	0.0482	0.0532	0.0582
x2 = 0.001799, x1 = 0.0001206	0.0462	0.0518	0.0574	0.0633	0.0693
x2 = 0.008927, x1 = 0.0002331	0.0722	0.0806	0.0896	0.0994	0.11
x2 = 0.008927, x1 = 0.0002565	0.0758	0.0847	0.0944	0.105	0.117
x2 = 0.008927, x1 = 0.0002782	0.079	0.0883	0.0986	0.11	0.122
x2 = 0.008927, x1 = 0.0002981	0.0818	0.0918	0.102	0.115	0.127
x2 = 0.008927, x1 = 0.0003168	0.0845	0.0949	0.106	0.119	0.132
x2 = 0.008927, x1 = 0.0003371	0.0874	0.0983	0.11	0.123	0.137
x2 = 0.008928, x1 = 0.0001252	0.0463	0.0518	0.0574	0.0633	0.0692
x2 = 0.008928, x1 = 0.0001513	0.0552	0.0616	0.0682	0.075	0.082
x2 = 0.008928, x1 = 0.000179	0.0627	0.0698	0.0773	0.0853	0.0937
x2 = 0.008928, x1 = 0.000207	0.068	0.0757	0.084	0.093	0.103
x2 = 0.008929, x1 = 5.804e-05	0.0225	0.0252	0.028	0.031	0.0339
x2 = 0.008929, x1 = 7.973e-05	0.0302	0.0339	0.0376	0.0414	0.0454
x2 = 0.008929, x1 = 0.0001014	0.038	0.0425	0.0472	0.0519	0.0568

CCCC[P+](CC)(CC)CC.Cc1ncc([N+](=O)[O-])[n-]1 + COCCOCCOCCOCCOC
100 kPa
Details	viscosity [mPa·s]
278.15 K, x2 = 0.048	1540
283.15 K, x2 = 0.102	631
283.15 K, x2 = 0.401	99
283.15 K, x2 = 0.501	57
298.15 K, x2 = 0.102	208
298.15 K, x2 = 0.201	130
308.15 K, x2 = 0.048	159
313.15 K, x2 = 0.102	90

CCCCCCCCCCCC[N+](C)(C)Cc1ccccc1.[Cl-] + NCC(=O)O + O
electrical conductivity [S/m], 101 kPa
Details	293.15 K	298.15 K	303.15 K	308.15 K
x2 = 0.0008873, x1 = 0.0002851	0.0824	0.0924	0.103	0.116
x2 = 0.0008873, x1 = 0.0003053	0.0856	0.0961	0.107	0.12
x2 = 0.0008873, x1 = 0.0003201	0.0879	0.0988	0.11	0.124
x2 = 0.0008874, x1 = 0.0001939	0.0676	0.0753	0.0835	0.0926
x2 = 0.0008874, x1 = 0.0002197	0.072	0.0803	0.0893	0.0992
x2 = 0.0008874, x1 = 0.0002434	0.0759	0.0848	0.0944	0.105
x2 = 0.0008874, x1 = 0.0002654	0.0793	0.0888	0.099	0.11
x2 = 0.0008875, x1 = 5.836e-05	0.0233	0.0261	0.0289	0.0319
x2 = 0.0008875, x1 = 8.059e-05	0.0317	0.0355	0.0393	0.0433
x2 = 0.0008875, x1 = 0.0001014	0.0394	0.0441	0.0489	0.0538
x2 = 0.0008875, x1 = 0.0001212	0.0469	0.0524	0.0581	0.0639
x2 = 0.0008875, x1 = 0.0001444	0.0552	0.0617	0.0682	0.0751
x2 = 0.0008875, x1 = 0.0001686	0.0624	0.0695	0.077	0.085
x2 = 0.001759, x1 = 5.744e-05	0.0233	0.026	0.0289	0.0319
x2 = 0.001759, x1 = 7.9e-05	0.0314	0.0351	0.039	0.0429
x2 = 0.001759, x1 = 9.947e-05	0.0391	0.0437	0.0485	0.0534
x2 = 0.001759, x1 = 0.0001207	0.0469	0.0525	0.0582	0.064
x2 = 0.001759, x1 = 0.0001453	0.0558	0.0624	0.069	0.0758
x2 = 0.001759, x1 = 0.0001712	0.0628	0.0701	0.0775	0.0856
x2 = 0.001759, x1 = 0.0001971	0.0678	0.0758	0.0841	0.0931
x2 = 0.001759, x1 = 0.0002216	0.072	0.0806	0.0896	0.0995
x2 = 0.001759, x1 = 0.0002442	0.0758	0.0849	0.0946	0.105
x2 = 0.001759, x1 = 0.000265	0.079	0.0888	0.099	–
x2 = 0.001759, x1 = 0.000284	0.0821	0.0923	0.103	–
x2 = 0.001759, x1 = 0.0003018	0.0849	0.0956	0.107	–
x2 = 0.001759, x1 = 0.0003141	0.087	0.098	0.11	–

CCCC[NH3+].O=[N+]([O-])[O-] + O
Details	viscosity
278.15 K, 101.33 kPa, x2 = 0.435	46.7 mPa·s
283.15 K, 101.33 kPa, x2 = 0.435	37.92 mPa·s and 48.9 mPa·s
288.15 K, 101.33 kPa, x2 = 0.435	31.29 mPa·s and 40.44 mPa·s
293.15 K, 101.33 kPa, x2 = 0.435	26.16 mPa·s and 33.68 mPa·s
298 K, 101 kPa, x2 = 0	108.5 mPa·s
298 K, 101 kPa, x2 = 0.294	33.93 mPa·s
298 K, 101 kPa, x2 = 0.801	3.93 mPa·s
298 K, 101 kPa, x2 = 0.9	2.18 mPa·s
298.15 K, 101.33 kPa, x2 = 0.435	22.32 mPa·s and 28.34 mPa·s
303.15 K, 101.33 kPa, x2 = 0.435	18.92 mPa·s and 23.98 mPa·s
308.15 K, 101.33 kPa, x2 = 0.435	16.33 mPa·s and 20.7 mPa·s
313.15 K, 101.33 kPa, x2 = 0.435	14.22 mPa·s and 17.85 mPa·s
318.15 K, 101.33 kPa, x2 = 0.435	12.47 mPa·s and 16.84 mPa·s
323.15 K, 101.33 kPa, x2 = 0.435	11.02 mPa·s and 13.73 mPa·s
328.15 K, 101.33 kPa, x2 = 0.435	9.79 mPa·s and 12.73 mPa·s
333.15 K, 101.33 kPa, x2 = 0.435	8.76 mPa·s and 10.31 mPa·s
338.15 K, 101.33 kPa, x2 = 0.435	7.87 mPa·s and 9.34 mPa·s

CCCC[N+](CCCC)(CCCC)CCCC.[Cl-] + CNCCO
101.3 kPa
Details	viscosity [mPa·s]
293.15 K, x1 = 0.09104	29.5
298.15 K, x1 = 0.09104	22.9
298.15 K, x1 = 0.111	26.1
303.15 K, x1 = 0.1441	27
308.15 K, x1 = 0.1441	21.1
313.15 K, x1 = 0.1441	17.1
318.15 K, x1 = 0.09104	11.4
328.15 K, x1 = 0.111	7.84

CS(C)=O + COCCOCCn1cc[n+](CCC#N)c1.O=S(=O)([N-]S(=O)(=O)C(F)(F)F)C(F)(F)F
101.3 kPa, x2 = 0
Details	electrical conductivity [S/m]
293.15 K	0.000587
303.15 K	0.000881
313.15 K	0.00118
323.15 K	0.00148

CC[n+]1ccn(C)c1.[Cl-] + O
viscosity [mPa·s], 100 kPa
Details	278.15 K	283.15 K	288.15 K	293.15 K	298.15 K	303.15 K	308.15 K	313.15 K	373 K
x1 = 9.063e-05	1.528	1.312	1.141	1.004	0.892	0.799	0.72	0.653	–
x1 = 0.0001805	1.531	1.314	1.144	1.006	0.894	0.8	0.721	0.654	–
x1 = 0.0003599	1.533	1.317	1.148	1.008	0.896	0.802	0.723	0.655	–
x1 = 0.0005394	1.538	1.321	1.15	1.011	0.898	0.804	0.724	0.656	–
x1 = 0.0007199	1.541	1.323	1.152	1.013	0.899	0.805	0.725	0.658	–
x1 = 0.0008996	1.545	1.327	1.156	1.015	0.902	0.807	0.728	0.659	–
x1 = 0.001079	1.547	1.329	1.158	1.018	0.904	0.809	0.729	0.661	–
x1 = 0.001351	1.554	1.335	1.163	1.023	0.908	0.813	0.732	0.664	–
x1 = 0.001799	1.563	1.344	1.17	1.029	0.914	0.817	0.736	0.667	–
x1 = 0.87	–	–	–	–	–	–	–	–	23
x1 = 0.9302	–	–	–	–	–	–	–	–	24
x1 = 0.9756	–	–	–	–	–	–	–	–	32
x1 = 1	–	–	–	–	–	–	–	–	36
